These are literature values, as cited in patent US12203859B2, “Device for detecting contamination with photosynthesis inhibitor and method for detecting contamination with photosynthesis inhibitor” (National Institute for Environmental Studies, priority 2019, dated 2025).

The test system of the data set is marine phytoplankton. The settings on record: pesticides that directly inhibit photosynthesis of plants.

SMILES strings stand for the structures.

With `CN(C)C(=O)Nc1ccc(Cl)c(Cl)c1` [Diuron], the “fluorescence quantum efficiency of marine phytoplankton” value was “decreases”.
For `CSc1nc(NC2CC2)nc(NC(C)(C)C)n1` [Irgarol], the “fluorescence quantum efficiency of marine phytoplankton” value is given as “decreases”.
